# Where a name gives a salt, the structure may show the parent alone.
# Biological target: T1, MASP-2 (CCP1-CCP2-SP) (Homo sapiens, UniProt O00187)
# T1 construct: 15 μL of Enzyme MASP-2 (CCP1-CCP2-SP) in Assay Buffer
# Test: Enzymatic Assay for MASP-2
# Type: biochemical
# Settings: fluorogenic substrate based on C2 cleavage site, room temperature, 20 mM HEPES pH 7.4
# Protocol: Enzymatic Assay for MASP-2
# The MASP-2 assay utilizes a fluorogenic substrate, based on the cleavage site for its natural substrate C2. The assay is run at room temperature in an assay buffer containing 20 mM HEPES, pH 7.4, 140 mM NaCl and 0.1% Tween 20. Assay parameters are adjusted such that the assay is linear with respect to time, enzyme, and substrate concentrations. Under these optimized assays conditions, IC50 values are equivalent to Ki values, except in a few cases of “tight binding” inhibitors. Cases of “tight binding” or possible “slow binding” inhibitors are handled by the methods described in Copeland R. A. (2013) Evaluation of Enzyme Inhibitors in Drug Discovery. 2nd Ed., John Wiley and Sons, Inc., Chapters 5-7.
# The MASP-2 assay protocol is carried out as follows. Test compounds are serially diluted in DMSO and then 100 nL of each dilution is transferred to the assay plate(s). 10 μL of Assay Buffer is added, followed by 15 μL of Enzyme MASP-2 (CCP1-CCP2-SP) in Assay Buffer. 15 μL of Substrate in Assay Buffer is then added and mixed to start the reactions. After 20 min at room temperature, 15 μL of a stop solution (0.1 M acetic acid) is added, mixed and the plates are read on a SpectraMax i3x Microplate Reader and exported as Excel files. Each assay plate included a “no inhibitor” (DMSO Only) control, a “no enzyme” control and a reference inhibitor control. % Activity values=100*(average test comp. fluorescence−average “no enzyme” fluorescence)/(average “DMSO only” fluorescence−average “no enzyme” fluorescence). IC50 and Ki values are very reproducible, falling well within ±2-fold.
# T1 sequence (O00187 445-686 limits assumed): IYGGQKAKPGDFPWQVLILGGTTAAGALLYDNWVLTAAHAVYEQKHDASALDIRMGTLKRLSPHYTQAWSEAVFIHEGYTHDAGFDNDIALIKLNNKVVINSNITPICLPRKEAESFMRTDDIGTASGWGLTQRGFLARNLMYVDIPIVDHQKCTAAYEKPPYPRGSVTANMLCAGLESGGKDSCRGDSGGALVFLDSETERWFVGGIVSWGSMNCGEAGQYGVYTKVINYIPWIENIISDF
# T1 sequence (O00187 298-444 partner limits assumed): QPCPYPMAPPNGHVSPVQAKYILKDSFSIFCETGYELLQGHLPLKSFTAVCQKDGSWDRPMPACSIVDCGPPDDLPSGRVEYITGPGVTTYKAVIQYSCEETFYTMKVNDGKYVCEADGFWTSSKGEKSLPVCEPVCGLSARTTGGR
row,Compound,Ki [nM]
1,"Cn1cc(NS(=O)(=O)Cc2ccccc2)c(=O)n(CC(=O)NCc2ccc(C(=N)N)cc2)c1=O [Compound 37, N-(4-Carbamimidoylbenzyl)-2-(3-Methyl-2,6-Dioxo-5-((Phenylmethyl)Sulfonamido)-3,6-Dihydropyrimidin-1(2H)-yl)Acetamide, Trifluoroacetate]",500 to 2500
2,"Cn1c(CNC(=O)Cn2c(-c3ccccc3)cnc(NCCc3ccccc3)c2=O)cc2cnccc21 [Compound 46, N-((1-Methyl-1H-Pyrrolo[3,2-c]Pyridin-2-yl)Methyl)-2-(2-Oxo-3-(Phenethylamino)-6-Phenylpyrazin-1(2H)-yl)Acetamide Trifluoroacetate]",< 500
3,"O=C(Cn1c(-c2ccccc2)cnc(NCC2(c3ccccc3)COC2)c1=O)NCc1cc2cnccc2[nH]1 [Compound 47, N-((1H-pyrrolo[3,2-c]pyridin-2-yl)methyl)-2-(2-oxo-6-phenyl-3-(((3-phenyloxetan-3-yl)methyl)amino)pyrazin-1(2H)-yl)acetamide trifluoroacetate]",< 500
4,"O=C(Cn1c(-c2ccccc2)cnc(NCCCc2ccccc2)c1=O)NCc1cc2cnccc2[nH]1 [Compound 48, N-((1H-Pyrrolo[3,2-c]pyridin-2-yl)methyl)-2-(2-oxo-6-phenyl-3-((3-phenylpropyl)amino)pyrazin-1(2H)-yl)acetamide trifluoroacetate]",< 500
5,"O=C(Cn1c(-c2ccccc2)cnc(NC(CO)Cc2ccccc2)c1=O)NCc1cc2cnccc2[nH]1 (stereo not drawn) [Compound 49, N-((1H-Pyrrolo[3,2-c]pyridin-2-yl)methyl)-2-(3-((1-hydroxy-3-phenylpropan-2-yl)amino)-2-oxo-6-phenylpyrazin-1(2H)-yl)acetamide trifluoroacetate]",< 500
6,"O=C(Cn1c(-c2ccccc2)cnc(NCC2(c3ccccc3)CCOC2)c1=O)NCc1cc2cnccc2[nH]1 (stereo not drawn) [Compound 50, N-((1H-Pyrrolo[3,2-c]pyridin-2-yl)methyl)-2-(2-oxo-6-phenyl-3-(((3-phenyltetrahydrofuran-3-yl)methyl)amino)pyrazin-1(2H)-yl)acetamide trifluoroacetate]",< 500
7,"O=C(Cn1c(-c2ccccc2)cnc(NC2(c3ccccc3)COC2)c1=O)NCc1cc2cnccc2[nH]1 [Compound 51, N-((1H-Pyrrolo[3,2-c]pyridin-2-yl)methyl)-2-(2-oxo-6-phenyl-3-((3-phenyloxetan-3-yl)amino)pyrazin-1(2H)-yl)acetamide trifluoroacetate]",< 500
8,"O=C(Cn1c(-c2ccccc2)cnc(NCC2(c3ccccc3)CC2)c1=O)NCc1cc2cnccc2[nH]1 [Compound 52, N-((1H-Pyrrolo[3,2-c]pyridin-2-yl)methyl)-2-(2-oxo-6-phenyl-3-(((1-phenylcyclopropyl)methyl)amino)pyrazin-1(2H)-yl)acetamide trifluoroacetate]",< 500
9,"O=C(Cn1c(-c2ccccc2)cnc(NCC2(c3ccc(F)cc3)COC2)c1=O)NCc1cc2cnccc2[nH]1 [Compound 55, N-((1H-Pyrrolo[3,2-c]pyridin-2-yl)methyl)-2-(3-(((3-(4-fluorophenyl)oxetan-3-yl)methyl)amino)-2-oxo-6-phenylpyrazin-1(2H)-yl)acetamide trifluoroacetate]",< 500
10,"O=C(Cn1c(-c2ccccc2)cnc(NCC2(c3ccccc3)CCC2)c1=O)NCc1cc2cnccc2[nH]1 [Compound 56, N-((1H-Pyrrolo[3,2-c]pyridin-2-yl)methyl)-2-(2-oxo-6-phenyl-3-(((1-phenylcyclobutyl)methyl)amino)pyrazin-1(2H)-yl)acetamide trifluoroacetate]",< 500
11,"O=C(Cn1c(-c2ccccc2)cnc(NCC2(c3ccc(Cl)cc3)CC2)c1=O)NCc1cc2cnccc2[nH]1 [Compound 57, N-((1H-Pyrrolo[3,2-c]pyridin-2-yl)methyl)-2-(3-(((1-(4-chlorophenyl)cyclopropyl)methyl)amino)-2-oxo-6-phenylpyrazin-1(2H)-yl)acetamide trifluoroacetate]",< 500
12,"O=C(Cn1c(-c2ccccc2)cnc(NCc2ccccc2)c1=O)NCc1cc2cnccc2[nH]1 [Compound 58, N-((1H-Pyrrolo[3,2-c]Pyridin-2-yl)Methyl)-2-(3-(Benzylamino)-2-Oxo-6-Phenylpyrazin-1(2H)-yl)Acetamide Trifluoroacetate]",< 500
13,"O=C(Cn1c(-c2ccccc2)cnc(NCC2(c3ccc(F)cc3)CC2)c1=O)NCc1cc2cnccc2[nH]1 [Compound 59, N-((1H-Pyrrolo[3,2-c]pyridin-2-yl)methyl)-2-(3-(((1-(4-fluorophenyl)cyclopropyl)methyl)amino)-2-oxo-6-phenylpyrazin-1(2H)-yl)acetamide trifluoroacetate]",< 500
14,"O=C(Cn1c(-c2ccccc2)cnc(NCC2(c3ccc(C(F)(F)F)cc3)CC2)c1=O)NCc1cc2cnccc2[nH]1 [Compound 60, N-((1H-Pyrrolo[3,2-c]pyridin-2-yl)methyl)-2-(2-oxo-6-phenyl-3-(((1-(4-(trifluoromethyl)phenyl)cyclopropyl)methyl)amino)pyrazin-1(2H)-yl)acetamide trifluoroacetate]",< 500
15,"COc1ccc(C2(CNc3ncc(-c4ccccc4)n(CC(=O)NCc4cc5cnccc5[nH]4)c3=O)CC2)cc1 [Compound 61, N-((1H-Pyrrolo[3,2-c]pyridin-2-yl)methyl)-2-(3-(((1-(4-methoxyphenyl)cyclopropyl)methyl)amino)-2-oxo-6-phenylpyrazin-1(2H)-yl)acetamide trifluoroacetate]",< 500
16,"O=C(Cn1c(-c2ccccc2)cnc(NCC2(c3ccccc3F)COC2)c1=O)NCc1cc2cnccc2[nH]1 [Compound 62, N-((1H-Pyrrolo[3,2-c]pyridin-2-yl)methyl)-2-(3-(((3-(2-fluorophenyl)oxetan-3-yl)methyl)amino)-2-oxo-6-phenylpyrazin-1(2H)-yl)acetamide trifluoroacetate]",< 500
17,"Cc1ccc(C2(CNc3ncc(-c4ccccc4)n(CC(=O)NCc4cc5cnccc5[nH]4)c3=O)CC2)cc1 [Compound 63, N-((1H-Pyrrolo[3,2-c]pyridin-2-yl)methyl)-2-(2-oxo-6-phenyl-3-(((1-(p-tolyl)cyclopropyl)methyl)amino)pyrazin-1(2H)-yl)acetamide trifluoroacetate]",< 500

# Next, values leading:
row,Ki [nM],Compound
1,500 to 2500,CNc1nc(Cl)c(-c2ccccc2)n(CC(=O)NCc2ccc(N)nc2C)c1=O [Compound 38]
2,2500 to 10000,"Cc1nc(N)ccc1CNC(=O)Cn1c(-c2ccccc2)c(Cl)nc(N(C)C)c1=O [Compound 39, N-((6-Amino-2-methylpyridin-3-yl)methyl)-2-(5-chloro-3-(dimethylamino)-2-oxo-6-phenylpyrazin-1(2H)-yl)acetamide]"
3,< 500,"Cc1nc(N)ccc1CNC(=O)Cn1c(-c2ccccc2)c(Cl)nc(N2CCCC2)c1=O [Compound 40, N-((6-Amino-2-methylpyridin-3-yl)methyl)-2-(5-chloro-2-oxo-6-phenyl-3-(pyrrolidin-1-yl)pyrazin-1(2H)-yl)acetamide]"
4,500 to 2500,"Cc1nc(N)ccc1CNC(=O)Cn1c(-c2ccccc2)c(Cl)nc(NCCc2ccccc2)c1=O [Compound 41, N-((6-Amino-2-Methylpyridin-3-yl)Methyl)-2-(5-Chloro-2-Oxo-3-(Phenethylamino)-6-Phenylpyrazin-1(2H)-yl)Acetamide]"
5,500 to 2500,Cc1nc(N)ccc1CNC(=O)Cn1c(-c2ccccc2)c(Cl)nc(NC2COC2c2ccccc2)c1=O (stereo not drawn) [Compound 42]
6,< 500,"Cc1nc(N)ccc1CNC(=O)Cn1c(-c2ccccc2)cnc(N2CCCC2)c1=O [Compound 43, N-((6-Amino-2-Methylpyridin-3-yl)Methyl)-2-(2-Oxo-6-Phenyl-3-(Pyrrolidin-1-yl)Pyrazin-1(2H)-yl)Acetamide]"
7,< 500,"Cc1nc(N)ccc1CNC(=O)Cn1c(-c2ccccc2)cnc(N2CCOCC2)c1=O [Compound 44, N-((6-Amino-2-methylpyridin-3-yl)methyl)-2-(3-morpholino-2-oxo-6-phenylpyrazin-1(2H)-yl)acetamide]"
8,< 500,"CNc1ncc(-c2ccccc2)n(CC(=O)NCc2ccc(N)nc2C)c1=O [Compound 45, N-((6-Amino-2-methylpyridin-3-yl)methyl)-2-(3-(methylamino)-2-oxo-6-phenylpyrazin-1(2H)-yl)acetamide]"
9,< 500,"CC(C)(C)OC(=O)N1CCC2(CC1)CCN(c1ncc(-c3ccccc3)n(CC(=O)NCc3cc4cnccc4[nH]3)c1=O)C2 [Compound 53, Tert-Butyl 2-(4-(2-(((1H-Pyrrolo[3,2-c]Pyridin-2-yl)Methyl)Amino)-2-Oxoethyl)-3-Oxo-5-Phenyl-3,4-Dihydropyrazin-2-yl)-2,8-Diazaspiro[4.5]Decane-8-Carboxylate]"
10,500 to 2500,"O=C(Cn1c(-c2ccccc2)cnc(N2CCC3(CCNCC3)C2)c1=O)NCc1cc2cnccc2[nH]1 [Compound 54, N-((1H-Pyrrolo[3,2-c]Pyridin-2-yl)Methyl)-2-(2-Oxo-6-Phenyl-3-(2,8-Diazaspiro[4.5]Decan-2-yl)Pyrazin-1(2H)-yl)Acetamide Di-Trifluoroacetate]"

# — patent US12110288B2, “MASP-2 inhibitors and methods of use” (Omeros Corporation, priority 2019, dated 2024)
